In patent US20050143927A1, “Method for estimating or predicting the anti-tumor activity of a compound and for estimating or predicting the tumor growth in mammals” (Pharmacia Italia S.p.A., priority 2002, published 2005):

Assays:
[1] = test system: H207 (ovarian human carcinoma); test: Tumor growth model for treated subjects, H207 inoculated subcutaneously in athymic nude mice (Experiment-C); format: in vivo; details: average growth curve
Description: The cell line H207 (ovarian human carcinoma) was inoculated subcutaneously on the back of 70 female athymic nude mice, initially weighing 17.0-25.0 g. […] Cage G2: 7 mice, treated with 3 iv-bolus of Drug-C, repeated every 7 days (therapeutic regimen q7d×3), at a dosing of 0.39 mg/kg. • III. Cage G3: 7 mice, treated with iv-bolus of Drug-C at the therapeutic regimen q7d×3, at a dosing of 0.52 mg/kg. • IV. […] Cage G6: 7 mice, treated with iv-bolus of Drug-C at the therapeutic regimen q4d×3, at a dosing of 0.39 mg/kg. • VII. Cage G8: 7 mice, treated with iv-bolus of Drug-C at the therapeutic regimen q4d×3, at a dosing of 0.52 mg/kg. • VIII. Cage G9: 7 mice, treated with 10 iv-bolus of Drug-C, subdivided in 2 cycles of treatment of 5 daily iv-bolus followed by 2 days of rest (therapeutic regimen qd×5×2 wks), at the dosing of 0.117 mg/kg each. • IX. Cage G10: 7 mice treated at the same treatment and therapeutic regimen of G4, but with the drug coming from a different batch of production.
In this case, despite the silent interval finished in correspondence of the tenth day (where the first measurement of the tumor mass was carried out), the chemotherapeutic treatment started in correspondence of the eleventh day.
The dimensions of the tumor can be taken applying different types of measurements broadly classifiable as measurements of linear dimensions, of volume (or mass) and cell number. For tumors that maintain more or less a spherical morphology, as in the case of solid tumors, the measurement of the three principal diameters results the most adequate, as well as the most practiced solution. Nevertheless, in the case of subcutaneous tumors, the tumor can be considered of spherical shape only during the initial phase of growth; in the following phases, the dimension perpendicular to the skin is generally much smaller than the percutaneous dimensions, conferring to the mass a plaque-like shape or an hemi-ellipsoidal shape. In the experiments taken into consideration, only the dimensions of the two percutaneous diameters were directly measured with vernier calipers. The third dimension was not directly measured, because of the limited accessibility (which would have required a greater invasiveness), in the assumption that two measures were anyhow sufficient to guarantee a good approximation of the tumor mass (K. Rygaard and M. Spang-Thomsen, “Quantitation and Gompertzian analysis of tumor growth”. Breast Cancer Research and Treatment, 46: 303-312,1997).
The volume of a tumor can be indirectly calculated by applying the following empirical formula: [formula] where DMIN and DMAX denote, respectively, the smallest and the largest percutaneous diameter. Such empirical formula hypothesizes that the neoplasia has an ellipsoidal shape (D. A. Cameron, W. M. Gregory, A. Bowman, E. D. C. Anderson, P. Levack, P. Forouhi and R. F. C. Leonard, “Identification of long-term survivors in primary breast cancer by dynamic modeling of tumour response”. British Journal of Cancer, 83(1): 98-103, 2000, Hammond, L. A.; Hilsenbeck, S. G.; Eckhardt, S. G.; Marty, J; Mangold, G.; MacDonald, G. R.; Rowinsky, E. K.; Von Hoff, D. D; Weitman S. Enhanced antitumour activity of 6-hydroxymethylacylfulvene in combination with topotecan or paclitaxel in the MV522 lung carcinoma xenograft model. European Journal of Cancer 2000, 36, 2430-2436) obtained by the rotation of a hemi-ellipsoid (with DMIN and DMAX as axes of the percutaneous plane) around its largest axe. Assuming δ as a constant density equal to δ=10^−3g/mm^3, the empirical expression for the mass of the neoplasia results to be: [formula] The Measurement Error Model

[2] = three-compartment PK model; known average value; cited from earlier work
[3] = test system: H207 (ovarian human carcinoma); test: Tumor growth model for treated subjects, H207 inoculated subcutaneously in athymic nude mice (Experiment-C); format: in vivo; details: average growth curve; remark: listed apart in the source
[4] = cage G2, 0.39 mg/kg iv-bolus q7dx3
[5] = cage G3, 0.52 mg/kg iv-bolus q7dx3
[6] = cage G4, 0.78 mg/kg iv-bolus q7dx3
[7] = cage G5, 0.26 mg/kg iv-bolus q4dx3
[8] = cage G6, 0.39 mg/kg iv-bolus q4dx3
[9] = cage G7, 0.52 mg/kg iv-bolus q4dx3
[10] = cage G8, 0.117 mg/kg iv-bolus qdx5x2wks
[11] = cage G9, 0.156 mg/kg iv-bolus qdx5x2wks
[12] = cage G10, 0.78 mg/kg iv-bolus q7dx3, drug from a different batch

C=C(Br)C(=O)Nc1cc(C(=O)Nc2cc(C(=O)Nc3cc(C(=O)Nc4cc(C(=O)NCCNC(=N)N)n(C)c4)n(C)c3)n(C)c2)n(C)c1 [Drug-C, brostallicin]
K1 (index of the tumor cells death rate) [1, 4]: 0.289 day⁻¹
K2 (index of the potency of the compound) [1, 4]: 0.1731 mL/g/day
λ0 (production rate of tumor cells, exponential phase) [1, 4]: 0.2886
λ1 (tumor cells mass produced in the time unit, linear phase) [1, 4]: 0.5183
K1 (index of the tumor cells death rate) [1, 5]: 0.2574 day⁻¹
K2 (index of the potency of the compound) [1, 5]: 0.1519 mL/g/day
λ0 (production rate of tumor cells, exponential phase) [1, 5]: 0.2757
λ1 (tumor cells mass produced in the time unit, linear phase) [1, 5]: 0.6241
K1 (index of the tumor cells death rate) [1, 6]: 0.2558 day⁻¹
K2 (index of the potency of the compound) [1, 6]: 0.1085 mL/g/day
λ0 (production rate of tumor cells, exponential phase) [1, 6]: 0.2297
λ1 (tumor cells mass produced in the time unit, linear phase) [1, 6]: 0.3193
K1 (index of the tumor cells death rate) [1, 7]: 0.2979 day⁻¹
K2 (index of the potency of the compound) [1, 7]: 0.2044 mL/g/day
λ0 (production rate of tumor cells, exponential phase) [1, 7]: 0.2728
λ1 (tumor cells mass produced in the time unit, linear phase) [1, 7]: 0.602
K1 (index of the tumor cells death rate) [1, 8]: 0.3486 day⁻¹
K2 (index of the potency of the compound) [1, 8]: 0.1698 mL/g/day
λ0 (production rate of tumor cells, exponential phase) [1, 8]: 0.2554
λ1 (tumor cells mass produced in the time unit, linear phase) [1, 8]: 0.2736
K1 (index of the tumor cells death rate) [1, 9]: 0.2488 day⁻¹
K2 (index of the potency of the compound) [1, 9]: 0.12 mL/g/day
λ0 (production rate of tumor cells, exponential phase) [1, 9]: 0.1966
λ1 (tumor cells mass produced in the time unit, linear phase) [1, 9]: 0.279
K1 (index of the tumor cells death rate) [1, 10]: 0.3766 day⁻¹
K2 (index of the potency of the compound) [1, 11]: 0.2829 mL/g/day
λ0 (production rate of tumor cells, exponential phase) [1, 11]: 0.2942
λ1 (tumor cells mass produced in the time unit, linear phase) [1, 11]: 0.1931
K1 (index of the tumor cells death rate) [1, 12]: 0.3789 day⁻¹
K2 (index of the potency of the compound) [1, 12]: 0.1558 mL/g/day
λ0 (production rate of tumor cells, exponential phase) [1, 12]: 0.2969
λ1 (tumor cells mass produced in the time unit, linear phase) [1, 12]: 0.2177
K10 [2]: 134.7 day⁻¹
K12 [2]: 42.33 day⁻¹
K13 [2]: 13.28 day⁻¹
K21 [2]: 48.7 day⁻¹
K31 [2]: 5.898 day⁻¹
Vd [2]: 0.1811 L/kg
K2 (index of the potency of the compound) [3, 10]: 0.2081 mL/g/day
λ0 (production rate of tumor cells, exponential phase) [3, 10]: 0.2611
λ1 (tumor cells mass produced in the time unit, linear phase) [3, 10]: 0.581
K1 (index of the tumor cells death rate) [3, 11]: 0.4152 day⁻¹
